How the values were obtained:
[1] = tested on: c-MYC Pu24T (DNA, G4) TGAGGGTGGTGAGGGTGGGGAAGG; test: 1D 1H NMR titration, imino shifts; conditions: 10 mM potassium phosphate, 35 mM KCl; pH 7.4, 298 K; 90 μM DNA, up to 5 eq. 2a
[2] = tested on: c-MYC Pu22 (DNA, G4) TGAGGGTGGGTAGGGTGGGTAA; test: fluorescence titration, 1:1 global fit (Bindfit); conditions: 100 mM KCl; 50 mM Tris pH 7.5, 25 °C, 0.6% DMSO; 1.5 μM compound
[3] = tested on: c-KIT 2 (DNA, G4) CCCGGGCGGGCGCGAGGGAGGGGAGG; test: fluorescence titration, 1:1 global fit (Bindfit); conditions: 100 mM KCl; 50 mM Tris pH 7.5, 25 °C, 0.6% DMSO; 1.5 μM compound
[4] = tested on: VAV-1 (DNA, G4) GGGCAGGGAGGGAACTGGG; test: fluorescence titration, 1:1 global fit (Bindfit); conditions: 100 mM KCl; 50 mM Tris pH 7.5, 25 °C, 0.6% DMSO; 1.5 μM compound
[5] = tested on: BCL-2 (DNA, G4) GGGCGCGGGAGGGAATTGGCGGGG; test: fluorescence titration, 1:1 global fit (Bindfit); conditions: 100 mM KCl; 50 mM Tris pH 7.5, 25 °C, 0.6% DMSO; 1.5 μM compound
[6] = tested on: Tel-22 (DNA, G4) AGGGTTAGGGTTAGGGTTAGGG; test: fluorescence titration, 1:1 global fit (Bindfit); conditions: 100 mM KCl; 50 mM Tris pH 7.5, 25 °C, 0.6% DMSO; 1.5 μM compound
[7] = tested on: c-MYC sG4 (DNA, G4) GGGTGGGTAGGGTGGG; test: fluorescence titration, 1:1 global fit (Bindfit); conditions: 100 mM KCl; 50 mM Tris pH 7.5, 25 °C, 0.6% DMSO; 1.5 μM compound
[8] = tested on: c-MYC Pu22 (DNA, G4) TGAGGGTGGGTAGGGTGGGTAA; test: fluorescence displacement of 2a; conditions: tracer 2a displaced
[9] = tested on: c-MYC Pu22 (DNA, G4) TGAGGGTGGGTAGGGTGGGTAA; test: UV-vis and fluorescence titration; conditions: 100 mM KCl; 50 mM Tris pH 7.5, 25 °C; 1.5-3.0 μM compound, up to 5.0 eq. DNA
[10] = tested on: Tel-22 (DNA, G4) AGGGTTAGGGTTAGGGTTAGGG; test: UV-vis and fluorescence titration; conditions: 100 mM KCl; 50 mM Tris pH 7.5, 25 °C; 1.5-3.0 μM compound, up to 5.0 eq. DNA
[11] = tested on: TBA (DNA, G4) GGTTGGTGTGGTTGG; test: UV-vis and fluorescence titration; conditions: 100 mM KCl; 50 mM Tris pH 7.5, 25 °C; 1.5-3.0 μM compound, up to 5.0 eq. DNA

| binding [8] | binding [9] | binding [10] | binding [11] | Compound | binding [1] | Kd [2] [µM] | Kd [3] [µM] | Kd [4] [µM] | Kd [5] [µM] | Kd [6] [µM] | Kd [7] [µM] |
| --- | --- | --- | --- | --- | --- | --- | --- | --- | --- | --- | --- |
|  |  |  |  | CCN(CC)c1ccc2cc(C(=N)N)c(=O)oc2c1 | yes | 13.0 | 9.1 | 15.0 | 14.6 | 45.2 | 12.6 |
| yes |  |  |  | C[n+]1cc(NC(=O)c2ccc3ccc4ccc(C(=O)Nc5cc6ccccc6[n+](C)c5)nc4c3n2)cc2ccccc21 |  |  |  |  |  |  |  |
|  |  |  |  | N=C(N)c1cc2cc3c4c(c2oc1=O)CCCN4CCC3 |  | 0.3 | 0.7 | 0.3 | 0.5 | 3.8 |  |
|  | no | no | no | N=C(N)c1cc2ccc(O)cc2oc1=O |  |  |  |  |  |  |  |

— article PMC8397291 (2021)
